Reference: patent US6140120A, “Regulated transcription of targeted genes and other biological events” (Board of Trustees of Leland Stanford Jr. University, priority 1998, dated 2000)
pEC50, pKd: −log10 of the molar value. “Also recorded” adds a separate entry of the source. Where two headings read alike, the source gives them in different places. Values belong to the molecule of their own block, whether it stands above or below them.

What was measured:
[1] = system: cell culture; experiment: Toxicity in cell culture; format: cell-based
[2] = system: myristoylated chimeric CD3/FKBP12 (MZF3E) receptor; experiment: NFAT-SEAP reporter through myristoylated chimeric CD3/FKBP12 (MZF3E) receptor; format: cell-based, human
From the text: In an illustrative case, this was accomplished by creating an intracellular receptor comprised of a small fragment of Src sufficient for posttranslational myristoylation (M), the cytoplasmic tail of zeta (Z; a component of the […] was also used), three consecutive FKBP12s (F3) and a flu epitope tag (E). Upon expressing the construct MZF3E (FIG. 18) in human (Jurkat) T cells, we confirmed that the encoded chimeric protein underwent FK1012-mediated oligomerization. The attendant aggregation of the zeta chains led to signaling via the endogenous TCR-signaling pathway (FIG. 15), as evidenced by secretion of alkaline phosphatase (SEAP) in response to an FK1012 (EC50 =50 nM). The promoter of the SEAP reporter gene was constructed to be transcriptionally activated by nuclear factor of activated T cells (NFAT), which is assembled in the nucleus following TCR-signaling.
Specifically, 5 μg of the eukaryotic expression vector, pBJ5, containing a myristoylated chimeric receptor was co-transfected with 4 μg NFAT-SX. MZE, MZF1E, MZF2E and MZF3E contain 0,1, 2, or 3 copies of FKBP12, respectively, downstream of a myristoylated CD3 cytoplasmic domain (see FIG. 2). As a control, 5 μg of pBJ5 was used in a parallel transfection. After 24 hours, aliquots of each transfection containing approximately 10^5 cells were incubated with log dilutions of the drug, FK1012B, as indicated. As a positive control and to control for transfection efficiency, ionomycin (1 μm) and PMA (25 ng/ml) were added to aliquots from each transfection. After an additional 12 hour incubation, the supernatants were assayed for alkaline phosphatase activity and these activities were expressed relative to that of the positive control samples. […] Compare FIGS. 7 and 8.

[3] = system: TAC/TAC/Z (TTZ) chimeric receptor; IL-2 enhancer/NFAT reporter in TAg Jurkat cells; experiment: SEAP reporter induction through chimeric receptor TAC/TAC/Z (TTZ); format: cell-based, human; settings: 1 ng/ml FK506
Experimental: As a positive control and to control for transfection efficiency, ionomycin (1 μm) and PMA (25 ng/ml) were added to aliquots from each transfection.

[4] = system: chimeric FKBP12/CD3 (1FK3) receptor; experiment: NFAT-SEAP reporter through chimeric FKBP12/CD3 (1FK3) receptor; format: cell-based, human; settings: 2 ng/ml FK506; FK1012A-stimulated
Experimental: 5 μg of the eukaryotic expression vector, pBJ5, (based on pCDL-SR with a polylinker inserted between the 16S splice site and the poly A site), containing the chimeric receptor (1FK3), was co-transfected with 4 μg of the NFAT-inducible secreted alkaline phosphatase reporter plasmid, NFAT-SX. As a control, 5 μg of pBJ5 was used, instead of 1FK3/pBJ5, in a parallel transfection. After 24 hours, aliquots of each transfection containing approximately 10^5 cells were incubated with log dilutions of the drug, FK1012A, as indicated. As a positive control and to control for transfection efficiency, ionomycin (1 μm) and PMA (25 ng/ml) were added to aliquots from each transfection. After an additional 14 hour incubation, the supernatants were assayed for alkaline phosphatase activity and these activities were expressed relative to that of the positive control samples.

[5] = system: calcineurin; settings: complex with cyclophilin or FKBP12; cited from earlier work
[6] = system: MZF3E chimera in Jurkat T cells; experiment: Co-immunoprecipitation of MZF3Eflu with MZF3Eflag (induced dimerization); format: cell-based, human; settings: 1 μM
[7] = system: MZF1Eflu and MZF1Eflag; experiment: Co-immunoprecipitation of FKBP monomer constructs MZF1E; format: cell-based, human
[8] = system: T cell receptor zeta chain / MZF3E in Jurkat cells; experiment: Recruitment of kinase activity to zeta-chain (in vitro kinase assay after immunoprecipitation) and tyrosine phosphorylation; format: cell-based, human; settings: Jurkat cells stably transfected with MZF3E
From the text: FK1012-induced protein-tyrosine phosphorylation. The intracellular domains of the TCR, CD3 and zeta-chains interact with cytoplasmic protein tyrosine kinases following antigen stimulation. Specific members of the Src family (lck and/or fyn) phosphorylate one or more tyrosine residues of activation motifs within these intracellular domains (tyrosine activation motif, TAM). The tyrosine kinase ZAP-70 is recruited (via its two SH2 domains) to the tyrosine phosphorylated T-cell-receptor, activated, and is likely to be involved in the further downstream activation of phospholipase C. […] Tyrosine phosphorylation after treatment of cells with either anti-CD3 MAb or FK1012 was detected using monoclonal alpha-phosphotyrosine antibodies. Whole cell lysates were analysed at varying times after stimulation. […] The pattern consisted of a major band of 70 kDa, probably ZAP-70, and minor bands of 120 kDa, 62 kDa, 55 kDa and 42 kDa.

[9] = target: FKBP12 (Homo sapiens, UniProt P62942); experiment: Binding of FK1012s, stoichiometry and Kd; settings: 2:1 binding stoichiometry
Chain of FKBP12 (P62942 whole entry): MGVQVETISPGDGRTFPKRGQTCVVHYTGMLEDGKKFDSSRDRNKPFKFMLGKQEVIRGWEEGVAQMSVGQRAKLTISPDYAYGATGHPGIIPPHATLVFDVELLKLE

[10] = system: calcineurin-mediated TCR signaling; experiment: Inhibition of calcineurin-mediated TCR signaling / immunosuppression; format: cell-based; settings: listed as FK1012s
[11] = system: Fas-FKBP12 fusion protein (MFF3E) in Jurkat T cells; experiment: Cell death/apoptosis through Fas-FKBP12 fusion MFF3E in Jurkat T cells; format: cell-based; settings: human Jurkat T cells
From the text: FIG. 21B depicts Immunphilin-Fas antigen chirneras and results of transient expression experiments in Jurkat T cells stably transformed with large T-antigen. Myr: the myristylation sequence taken from pp60^c-src encoding residues 1-14 (Wilson et al, Mol & Cell Biol 9 4 (1989): 1536-44); FKBP: human FKBP12; CypC: murine cyclophilin C sequence encoding residues 36-212 (Freidman et al, Cell 66 4 (1991): 799-806); Fas: intracellular domain of human Fas antigen encoding residues 179-319 (Oehm et al, J Biol Chem 267 15 (1992): 10709-15). Cells were electroporated with a plasmid encoding a secreted alkaline phosphatase reporter gene under the control of 3 tandem API promoters along with a six fold molar excess of the immunophilin fusion construct. After 24 h the cells were stimulated with PMA (50 ng/mL), which stimulates the synthesis of the reporter gene, and (CsA)2. At 48 h the cells were assayed for reporter gene activity. Western blots were performed at 24 h using anti-HA epitope antibodies.
A chimeric cDNA has been constructed consisting of three FKBP12 domains fused to the cytoplasmic signaling domain of the Fas antigen (FIG. 20). […] Since the stable transfectants represent a homogeneous population of cells, they have been used to ascertain that death is due to apoptosis rather than necrosis (membrane blebbing, nucleosomal DNA fragmentation). […]

[12] = system: FKBP12-Fas antigen chimera in D10 T cells; experiment: Apoptosis through FKBP12-Fas chimera in D10 T cells; format: cell-based; settings: murine D10 T cells
From the text: A chimeric cDNA has been constructed consisting of three FKBP12 domains fused to the cytoplasmic signaling domain of the Fas antigen (FIG. 20). […] Since the stable transfectants represent a homogeneous population of cells, they have been used to ascertain that death is due to apoptosis rather than necrosis (membrane blebbing, nucleosomal DNA fragmentation). However, the transient transfection protocol requires much less work and has therefore been used as an initial assay system, as described below.

[13] = system: ΔMFF3E; experiment: Apoptosis with non-myristoylated construct ΔMFF3E; format: cell-based; settings: ΔMFF3E vs. myristoylated construct

Molecule: CO[C@H]1C[C@@H](C)C/C(C)=C/[C@@H](CCOC(=O)NCc2ccccc2)C(=O)C[C@H](O)[C@@H](C)[C@@H](/C(C)=C/[C@@H]2CC[C@@H](O)[C@H](OC)C2)OC(=O)[C@@H]2CCCCN2C(=O)C(=O)[C@]2(O)O[C@H]1[C@@H](OC)C[C@H]2C [FK506-M]
- toxicity of monomeric ligand ([1]; in words): nontoxic
- termination of FK1012-induced signaling ([2]; monomeric ligand): FK1012-induced signaling can be terminated

Molecule: C=CC[C@@H]1/C=C(\C)C[C@H](C)C[C@H](OC)[C@H]2O[C@@](O)(C(=O)C(=O)N3CCCC[C@H]3C(=O)O[C@H](/C(C)=C/[C@@H]3CC[C@@H](O)[C@H](OC)C3)[C@H](C)[C@@H](O)CC1=O)[C@H](C)C[C@@H]2OC [FK506]
- response of NFAT reporter on addition of FK506 [3]: dropped all activity due to NFAT to background levels
- stimulation of NFAT reporter on addition of FK506 [4]: dropped all stimulations to background levels
- stimulation of NFAT reporter on addition of FK506 ([2]; 1 ng/ml FK506, FK1012B-stimulated): dropped all stimulations to near background levels
- binding to / inactivation of calcineurin as immunophilin complex [5]: binds with high affinity to calcineurin

Molecule: CO[C@H]1C[C@@H](C)C/C(C)=C/[C@@H](CCOC(=O)NCc2ccc(CNC(=O)OCC[C@@H]3/C=C(\C)C[C@H](C)C[C@H](OC)[C@H]4O[C@@](O)(C(=O)C(=O)N5CCCC[C@H]5C(=O)O[C@H](/C(C)=C/[C@@H]5CC[C@@H](O)[C@H](OC)C5)[C@H](C)[C@@H](O)CC3=O)[C@H](C)C[C@@H]4OC)cc2)C(=O)C[C@H](O)[C@@H](C)[C@@H](/C(C)=C/[C@@H]2CC[C@@H](O)[C@H](OC)C2)OC(=O)[C@@H]2CCCCN2C(=O)C(=O)[C@]2(O)O[C@H]1[C@@H](OC)C[C@H]2C [FK1012A]
- coimmunoprecipitation of MZF3Eflu with MZF3Eflag [6]: interacts with MZF3Eflu and is coimmunoprecipitated with MZF3Eflag
- dimerization of FKBP monomer constructs [7]: also dimerized
- recruitment of kinase activity to the zeta-chain [8]: recruitment of kinase activity to the zeta-chain

- pKd ([9]; read-out: Kd (1)): 10.00
- pKd ([9]; read-out: Kd (2)): 9.10
- pEC50 ([2]; Jurkat T cells expressing MZF3E, read-out: EC50, secretion of alkaline phosphatase (SEAP)): 7.30
Molecule: FK1012
- inhibition of signaling [10]: does not inhibit signaling pathways; also recorded: do not inhibit calcineurin-mediated TCR signaling
- toxicity ([1]; FK1012s: up to 0.1 mM in cell culture): nor toxic (up to 0.1 mM in cell culture)
- induction of cell death / apoptosis [11]: FK1012-dependent apoptosis; also recorded: cell death of the Jurkat T-cell line
- induction of apoptosis [12]: FK1012-dependent apoptosis
- potency of mutated construct as inducer of FK1012-dependent apoptosis [13]: equally potent
